Test results taken from ChEMBL document CHEMBL1926684, “Constituents of Trigonostemon heterophyllus” (J Nat Prod, 2011).

Tests used:
A549 = assay: Cytotoxicity against human A549 cells by SRB assay; format: functional, cell-based
HL-60 = assay: Cytotoxicity against human HL60 cells by MTT assay; format: functional, cell-based

SMILES: C=C(C)[C@@]1(OC(C)=O)[C@H](OC(C)=O)[C@@H]2[C@H](OC(C)=O)[C@@]3(C)O[C@@]4([C@@H]3OC(C)=O)[C@@H](OC(=O)c3ccccc3)[C@](C)(OC(C)=O)C[C@H]4[C@@]2(O)[C@H](C)[C@@H]1OC(=O)c1ccccc1 (relative stereo)
- IC50 (A549): > 10 µM
- IC50 (HL-60): > 10 µM

SMILES: C=C(C)[C@@]12OC3(C)O[C@@H]1[C@@H]1[C@H](O)[C@@](C)(O)[C@@H](O)[C@@]4(O)[C@@H](C[C@H](C)[C@@H]4OC(C)=O)[C@@]1(O3)[C@H](C)[C@@H]2OC(=O)CCc1ccccc1 (relative stereo)
- IC50 (A549): > 10 µM
- IC50 (HL-60): > 10 µM

SMILES: C=C(C)[C@@]12OC3(c4ccccc4)O[C@@H]1[C@@H]1[C@H](OC(C)=O)[C@@](C)(O)[C@@H](OC(=O)c4ccccc4)[C@@]4(O)[C@@H](C[C@H](C)[C@@H]4OC(C)=O)[C@@]1(O3)[C@H](C)[C@@H]2OC(C)=O (relative stereo)
- IC50 (A549): > 10 µM
- IC50 (HL-60): > 10 µM

SMILES: CC(C)=CC(=O)C(O)/C(C)=C/CC[C@](C)(O)C1CCC(C)=CC1=O (some centres not stated)
- IC50 (A549): > 10 µM
- IC50 (HL-60): > 10 µM

SMILES: C=C(C)[C@@]12OC3(c4ccccc4)O[C@@H]1[C@@H]1[C@H]4O[C@@]4(C)[C@@H](O)[C@]4(O)C(=O)[C@@H](C)C[C@H]4[C@@]1(O3)[C@H](C)[C@@H]2OC(=O)c1ccccc1 (relative stereo)
- IC50 (A549): 10 µM
- IC50 (HL-60): 1.8 µM

SMILES: C=C(C)[C@@]1(OC(C)=O)[C@H](OC(C)=O)[C@@H]2[C@H](OC(C)=O)[C@@]3(C)O[C@@]4([C@@H]3OC(C)=O)[C@@H](OC(=O)c3ccccc3)[C@@H](C)C[C@H]4[C@@]2(O)[C@H](C)[C@@H]1OC(=O)c1ccccc1 [TRIGOHETERIN B]
- IC50 (A549): > 10 µM
- IC50 (HL-60): > 10 µM
